Among the test systems are OVCAR-4; MOLT-4; NCI-H226; NCI-H23; MDA-MB-435; SN12C; SNB-75; T47D; 786-0; CCRF-CEM; MDA-N; OVCAR-5; NCI-H522; BT-549; HCT-15; M14; SF-539; A498; TK-10; NCI/ADR-RES.
Experiment in all cases: NCI anticancer screen, dose series, 48 h

This note sets out measurements from ChEMBL document CHEMBL1201862, “PubChem BioAssay data set” (2004).

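Cultured in 96-well plates, cells were exposed to test compound for 48 hours across five concentrations. GI50 marks 50% less growth.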 Calls of active or inactive are those of the source. Cut-off read from the data, not from the text of the source: active = GI50 up to about 1.1 µM and inactive = higher. Peptide text beside a SMILES is read from it. * marks the point of attachment. OSu = O=C1CCC(=O)N1O*

Regarding `N=c1nc(N)c2cc3c(N)nc(=N)c3cc12`, the GI50 with OVCAR-4 was 15.4 µM (inactive); in the experiment with MOLT-4, 4.07 µM (inactive); in the experiment on NCI-H226, 13 µM (inactive); in the experiment on NCI-H23, 35.3 µM (inactive); in the experiment with MDA-MB-435, 3.19 µM (inactive); in the experiment on SN12C it was 5.07 µM (inactive). Besides, the GI50 with SNB-75 is 8.09 µM (inactive); in the experiment on T47D it was 8.51 µM (inactive); in the experiment with 786-0, 4.86 µM (inactive); with CCRF-CEM, 2.28 µM (inactive); with MDA-N, 2.05 µM (inactive); in the experiment with OVCAR-5, 19.1 µM (inactive). The GI50 in the experiment on NCI-H522 was 16 µM (inactive); in the experiment on BT-549, 3.99 µM (inactive); in the experiment on HCT-15, 71.6 µM; with M14 it was 2.47 µM (inactive); with SF-539, 4.85 µM (inactive); in the experiment on A498, > 9.27 µM (inactive). For the same molecule, in the experiment on TK-10, the GI50 is 15.3 µM (inactive).

In the case of `O=c1oc2ccc3ccccc3c2cc1-c1cn2c(n1)sc1ccccc12`, the GI50 was > 100 µM (inactive) with OVCAR-4; 3.06 µM (inactive) in the experiment with MOLT-4; > 100 µM (inactive) with NCI-H226; > 100 µM (inactive) in the experiment on NCI-H23; > 100 µM (inactive) in the experiment with MDA-MB-435; > 100 µM (inactive) with NCI/ADR-RES. The GI50 in the experiment with SNB-75, with 786-0, in the experiment on CCRF-CEM, with MDA-N, with OVCAR-5 and in the experiment with NCI-H522 was > 100 µM (inactive) each time. The GI50 in the experiment with BT-549 was > 100 µM (inactive); in the experiment with HCT-15 it was > 100 µM; with M14, > 100 µM (inactive); in the experiment on A498 it was > 100 µM (inactive); with TK-10, > 100 µM (inactive).

Turning to `O=C1OC(c2ccc([N+](=O)[O-])cc2)=N/C1=C\c1ccc(O)cc1`, the GI50 with OVCAR-4, in the experiment with MOLT-4, in the experiment on NCI-H226, in the experiment with NCI-H23, in the experiment with MDA-MB-435 and with SN12C was > 100 µM (inactive) in each case. The GI50 with SNB-75, in the experiment with T47D, in the experiment on 786-0, in the experiment on CCRF-CEM, in the experiment on MDA-N and in the experiment with OVCAR-5 was > 100 µM (inactive) in each case. The GI50 in the experiment on NCI-H522 is > 100 µM (inactive); in the experiment on BT-549, > 100 µM (inactive); with HCT-15, > 100 µM; with M14, > 100 µM (inactive); in the experiment on SF-539, > 100 µM (inactive); in the experiment with A498, > 100 µM (inactive). In addition, the GI50 in the experiment with TK-10 is > 100 µM (inactive).

Take `CC(NC(=O)OC(C)(C)C)C(=O)NC1CCCC1` (configuration not stated): the GI50 in the experiment on OVCAR-4, in the experiment with MOLT-4, in the experiment on NCI-H226, with NCI-H23, in the experiment on MDA-MB-435 and in the experiment with SN12C was > 100 µM (inactive) each time. The GI50 in the experiment on NCI/ADR-RES, in the experiment with SNB-75, in the experiment with 786-0, in the experiment on CCRF-CEM, in the experiment on MDA-N and in the experiment with OVCAR-5 was > 100 µM (inactive) throughout. For the same molecule, the GI50 in the experiment on NCI-H522, in the experiment on M14, with A498 and with TK-10 was > 100 µM (inactive) in each case.

For the molecule `C/C(=N/NC(=S)NCCc1ccccn1)c1cnccn1`, the GI50 is 24.4 µM (inactive) in the experiment on OVCAR-4; 3.26 µM (inactive) in the experiment on MOLT-4; 38.6 µM (inactive) in the experiment with NCI-H23; 53.3 µM (inactive) in the experiment with MDA-MB-435; 21.9 µM (inactive) in the experiment with SN12C; > 100 µM (inactive) with SNB-75. Further, the GI50 is 6.05 µM (inactive) in the experiment on T47D; 14.6 µM (inactive) in the experiment on 786-0; 2.64 µM (inactive) in the experiment with CCRF-CEM; 53 µM (inactive) in the experiment on MDA-N; 79.3 µM (inactive) in the experiment on OVCAR-5; 3.6 µM (inactive) in the experiment on NCI-H522. The values for the GI50 in the experiment with BT-549, in the experiment with M14 and with TK-10 were 32.5 µM (inactive), 24 µM (inactive) and 17 µM (inactive), respectively.

Consider `NCCCCC(NC(=O)C(N)Cc1ccc(O)cc1)C(=O)NC(Cc1ccc(O)cc1)C(=O)NC(CCCCN)C(=O)ON1C(=O)CCC1=O` (configuration not stated) (H-YKYK-OSu; configuration not given here), for which the GI50 in the experiment with MOLT-4, in the experiment on NCI-H226, with NCI-H23, in the experiment with SN12C, with SNB-75 and in the experiment with T47D was > 100 µM (inactive) in each case. Besides, the GI50 in the experiment with 786-0 was > 100 µM (inactive); in the experiment with MDA-N, > 100 µM (inactive); in the experiment on OVCAR-5, > 100 µM (inactive); in the experiment on BT-549, > 100 µM (inactive); in the experiment on HCT-15, > 100 µM; in the experiment with M14 it was > 100 µM (inactive). Also, the GI50 in the experiment on A498 and in the experiment on TK-10 was > 100 µM (inactive) each time.

For the molecule `CCOC(=O)CC(N1CC1)N1CC1`, the GI50 in the experiment on OVCAR-4, with MOLT-4, with NCI-H226, in the experiment on NCI-H23, in the experiment on MDA-MB-435 and in the experiment on SN12C was > 10 µM (inactive) throughout. In addition, the GI50 with NCI/ADR-RES, in the experiment on SNB-75, with T47D, in the experiment on 786-0, in the experiment on CCRF-CEM and with MDA-N was > 10 µM (inactive) in each case. The GI50 was > 10 µM (inactive) in the experiment with OVCAR-5; > 10 µM (inactive) in the experiment on NCI-H522; > 10 µM with HCT-15; > 10 µM (inactive) in the experiment with M14; > 10 µM (inactive) in the experiment on SF-539; > 10 µM (inactive) in the experiment with A498. The GI50 in the experiment with TK-10 was > 10 µM (inactive).

As for `O=C1NC(=O)[C@H]2C3C=CC([C@@H]12)[C@@H]1C(=O)NC(=O)[C@H]31`, the GI50 with MOLT-4, in the experiment with NCI-H226, in the experiment with NCI-H23, in the experiment with MDA-MB-435, with SN12C and in the experiment on NCI/ADR-RES was > 100 µM (inactive) throughout. For the same molecule, the GI50 with T47D, in the experiment with 786-0, in the experiment with CCRF-CEM, with MDA-N, in the experiment with OVCAR-5 and in the experiment with NCI-H522 was > 100 µM (inactive) throughout. Besides, the GI50 is > 100 µM (inactive) in the experiment with BT-549; > 100 µM in the experiment with HCT-15; > 100 µM (inactive) in the experiment with M14; > 100 µM (inactive) with SF-539; > 100 µM (inactive) in the experiment with TK-10.

Turning to `CCCCNCCCNCCCNC(=O)c1csc(-c2csc(CCNC(=O)C(NC(=O)C(C)C(O)C(C)NC(=O)C(NC(=O)c3nc(C(CC(N)=O)NCC(N)C(N)=O)nc(N)c3C)C(OC3OC(CO)C(O)C(O)C3OC3OC(CO)C(O)C(OC(N)=O)C3O)c3c[nH]cn3)C(C)O)n2)n1` (configuration not stated), the GI50 in the experiment on OVCAR-4 was 5.75 µM (inactive); with MOLT-4, 2.07 µM (inactive); in the experiment on NCI-H226, 0.175 µM (active); in the experiment on NCI-H23 it was 0.083 µM (active); in the experiment on MDA-MB-435 it was 18.7 µM (inactive); in the experiment with SN12C, 2.21 µM (inactive). Further, the GI50 is 0.0589 µM (active) with SNB-75; 12.9 µM (inactive) in the experiment on T47D; 0.167 µM (active) in the experiment with 786-0; 15.6 µM (inactive) in the experiment with CCRF-CEM; 2.3 µM (inactive) in the experiment with OVCAR-5; 0.791 µM (active) in the experiment on NCI-H522. Further, the GI50 in the experiment with BT-549 was > 50 µM (inactive); in the experiment with HCT-15, 24.9 µM; in the experiment with M14, 1.43 µM (inactive); in the experiment with SF-539 it was < 0.01 µM (active); in the experiment with A498, 3.65 µM (inactive); with TK-10 it was 17.3 µM (inactive).

With `Oc1cc(-c2ccc3ccccc3c2)nc2ncc(Cl)cc12`, the GI50 in the experiment with OVCAR-4 was 6.43 µM (inactive); in the experiment on MOLT-4, 3.27 µM (inactive); with NCI-H226 it was 12 µM (inactive); in the experiment on NCI-H23, 7.14 µM (inactive); in the experiment on SN12C, 9.06 µM (inactive); in the experiment on NCI/ADR-RES, 6.32 µM (inactive). Moreover, the GI50 is 1.98 µM (inactive) in the experiment on SNB-75; 18.8 µM (inactive) in the experiment with T47D; 2.84 µM (inactive) with 786-0; 3.48 µM (inactive) with CCRF-CEM; 64.9 µM (inactive) with OVCAR-5; 4.32 µM (inactive) in the experiment on NCI-H522. For the same molecule, the GI50 was 37.8 µM (inactive) with BT-549; 3.57 µM in the experiment on HCT-15; 8.17 µM (inactive) in the experiment with M14; 5.62 µM (inactive) with SF-539; 12.1 µM (inactive) in the experiment on A498; 12.7 µM (inactive) with TK-10.

For the molecule `CC1(C)COC(c2cccc(C3=NC(C)(C)CO3)c2Br)=N1`, the GI50 in the experiment on OVCAR-4, in the experiment with MOLT-4, in the experiment on NCI-H226, in the experiment with NCI-H23, with MDA-MB-435 and in the experiment on NCI/ADR-RES was > 100 µM (inactive) each time. Besides, the GI50 in the experiment on SNB-75 was 3.05 µM (inactive); in the experiment with T47D, > 100 µM (inactive); with 786-0, > 100 µM (inactive); in the experiment on OVCAR-5, > 100 µM (inactive); in the experiment with BT-549, > 100 µM (inactive); in the experiment on HCT-15 it was > 100 µM. In addition, the GI50 with M14, in the experiment on SF-539 and in the experiment on TK-10 was > 100 µM (inactive) in each case.
